Reference: patent US12357644B2, “Acetyl salicylic acid composition for intravenous administration, its storage, production and use” (HYLORIS DEVELOPMENTS SA, priority 2022, dated 2025)

Key:
[1] = Terminal sterilization by autoclaving, degradation of ASA; type: physicochemical; conditions: autoclaving at 121° C. for 20 mins
Method: In yet another alternative, the first component comprises an autoclaved terminally sterilized acetyl salicylic acid particulate powder. The terminally sterilized material may be obtained by autoclaving at 121° C. for 20 mins.
Alternatively, the first component was prepared by filling acetyl salicylic acid into vials and terminally sterilizing the ASA filled vials for 20 minutes at 121° C. A skilled person would not expect that a two-component system can be based on autoclaved ASA due to an expected incompatibility with heat.

[2] = Solution pH before and after addition of ASA to medium; type: physicochemical
Method: Prior to spray drying experiments, the solution pH of different solvents and the saturation solubility of ASA in different solvents was screened. The acidified mediums were prepared as follows:
8.5 ml of hydrochloric acid (about 35% v/v) was transferred into 900 ml of water and diluted to 1000 ml with water. 10.0 ml of this solution was diluted to 1000 ml with water. The pH of the solution was noted.
8.5 ml of hydrochloric acid (about 35% v/v) was transferred into 900 mL 96% ethanol and diluted to 1000 ml with water. 10.0 ml of this solution was diluted to 1000 ml with 96% ethanol. The pH of the solution was noted.
8.5 ml of hydrochloric acid (about 35% v/v) was transferred into 900 mL Tertiary butyl alcohol and diluted to 1000 ml with Tertiary butyl alcohol. 10.0 ml of this solution was diluted to 1000 ml with 96% Tertiary butyl alcohol. The pH of the solution was noted.
8.5 ml of hydrochloric acid (about 35% v/v) was transferred into 900 ml water and diluted to 1000 ml with water. 10.0 ml of this solution was diluted to 1000 ml with water. […] The pH of the solution was noted.
ASA has more solubility in non-aqueous media compared to aqueous media and ASA dissolves better in ethanol compared to tertiary butyl alcohol however it also has higher salicylic acid content (Tables 6 and 7). Once it is acidified the salicylic acid levels are lowered.

[3] = Salicylic acid content in sample solutions kept at benchtop; type: physicochemical; conditions: for Average conc. salicylic acid: no pH adjustment; for Average conc. salicylic acid / Average conc. of salicylic acid: benchtop
Method: In addition, storage stability screenings were conducted. The solutions prepared as previously described, were kept on a benchtop at 24+/−3° C. and 70% relative humidity. For media with no pH adjustment, the degradation of ASA is higher in ethanol as compared to the other media in the test (see Table 8). For media with pH adjustment, degradation of ASA in acidified TBA, acidified water and acidified water with mannitol were almost similar. Degradation in acidified TBA was higher than in acidified ethanol at 24+/−3° C. and 70% relative humidity (see Table 9).
It was observed that acidified ethanol has the highest solubility and stability. […] The finding of up to 72 hours stability is critical, because it allows manipulations during the manufacturing process and a manufacturing run of up to 3 days.

[4] = cited from earlier work

Which “degradation of acetyl salicylic acid” value [1] does the source give for `CC(=O)Oc1ccccc1C(=O)O` [ASA, Acetyl salicylic acid] here?
The value was “no degradation”.

And the “pH 48 hours after addition of ASA” value ([2]; 96% Ethanol, no prior pH adjustment (pH 7.06 before))?
Its value is 3.09.

What about the “pH 48 hours after addition of ASA” value ([2]; Acidified 96% ethanol (pH 2.30 before)) of the same molecule?
The value was 2.24.

What about the “pH 48 hours after addition of ASA” value ([2]; Acidified tert-butyl alcohol (pH 2.01 before)) of the same molecule?
Its value is 1.93.

What about the “pH 48 hours after addition of ASA” value ([2]; Acidified water (0.001N HCl) (pH 2.47 before)) of the same molecule?
The value was 2.37.

And the “pH 48 hours after addition of ASA” value ([2]; Acidified water + 60 g/L mannitol (pH 2.50 before))?
Its value is 2.36.

What about the “pH 48 hours after addition of ASA” value ([2]; Milli-Q Water, no prior pH adjustment (pH 5.41 before)) of the same molecule?
Its value is 2.62.

And the “pH 48 hours after addition of ASA” value ([2]; Tert-butyl alcohol, no prior pH adjustment (pH 4.89 before))?
Its value is 3.40.

What about the “pH 48 hours after addition of ASA” value ([2]; Water + 60 g/L mannitol, no prior pH adjustment (pH 6.03 before)) of the same molecule?
The value was 2.61.

What about the “Average conc. salicylic acid” value ([3]; 60 g/L mannitol, 0 hr) of the same molecule?
The value was 0.262 mg/mL.

And the “Average conc. salicylic acid” value ([3]; 60 g/L mannitol, 72 Hrs)?
Its value is 0.897 mg/mL.

What about the “Average conc. salicylic acid” value ([3]; 60 g/L mannitol, 6 hrs) of the same molecule?
The value was 0.285 mg/mL.

And the “Average conc. salicylic acid” value ([3]; 60 g/L mannitol, 12 hrs)?
The value was 0.312 mg/mL.

What about the “Average conc. salicylic acid” value ([3]; 60 g/L mannitol, 24 hrs) of the same molecule?
The value was 0.574 mg/mL.

And the “Average conc. salicylic acid” value ([3]; 60 g/L mannitol, 48 hrs)?
Its value is 0.863 mg/mL.

What about the “Average conc. of salicylic acid” value ([3]; Acidified 60 g/L mannitol, 0 hr) of the same molecule?
Its value is 0.153 mg/mL.

What about the “Average conc. of salicylic acid” value ([3]; Acidified 60 g/L mannitol, 72 Hrs) of the same molecule?
Its value is 0.403 mg/mL.

And the “Average conc. of salicylic acid” value ([3]; Acidified 60 g/L mannitol, 6 hrs)?
The value was 0.167 mg/mL.

And the “Average conc. of salicylic acid” value ([3]; Acidified 60 g/L mannitol, 12 hrs)?
The value was 0.218 mg/mL.

And the “Average conc. of salicylic acid” value ([3]; Acidified 60 g/L mannitol, 24 hrs)?
The value was 0.260 mg/mL.

What about the “Average conc. of salicylic acid” value ([3]; Acidified 60 g/L mannitol, 48 hrs) of the same molecule?
Its value is 0.322 mg/mL.

And the “Average conc. of salicylic acid” value ([3]; Acidified Tert-butyl alcohol, 0 hr)?
Its value is 0.237 mg/mL.

And the “Average conc. of salicylic acid” value ([3]; Acidified Tert-butyl alcohol, 72 Hrs)?
The value was 8.176 mg/mL.

And the “Average conc. of salicylic acid” value ([3]; Acidified Tert-butyl alcohol, 6 hrs)?
The value was 0.388 mg/mL.

And the “Average conc. of salicylic acid” value ([3]; Acidified Tert-butyl alcohol, 12 hrs)?
The value was 1.737 mg/mL.

What about the “Average conc. of salicylic acid” value ([3]; Acidified Tert-butyl alcohol, 24 hrs) of the same molecule?
Its value is 3.135 mg/mL.

What about the “Average conc. of salicylic acid” value ([3]; Acidified Tert-butyl alcohol, 48 hrs) of the same molecule?
The value was 5.403 mg/mL.

And the “Average conc. of salicylic acid” value ([3]; Acidified ethanol 96%, 0 hr)?
Its value is 0.901 mg/mL.

What about the “Average conc. of salicylic acid” value ([3]; Acidified ethanol 96%, 72 Hrs) of the same molecule?
Its value is 1.627 mg/mL.

What about the “Average conc. of salicylic acid” value ([3]; Acidified ethanol 96%, 6 hrs) of the same molecule?
Its value is 0.947 mg/mL.

And the “Average conc. of salicylic acid” value ([3]; Acidified ethanol 96%, 12 hrs)?
The value was 1.130 mg/mL.

What about the “Average conc. of salicylic acid” value ([3]; Acidified ethanol 96%, 24 hrs) of the same molecule?
Its value is 1.280 mg/mL.

And the “Average conc. of salicylic acid” value ([3]; Acidified ethanol 96%, 48 hrs)?
Its value is 1.430 mg/mL.

What about the “Average conc. of salicylic acid” value ([3]; Acidified water, 0 hr) of the same molecule?
Its value is 0.162 mg/mL.

And the “Average conc. of salicylic acid” value ([3]; Acidified water, 72 Hrs)?
Its value is 0.402 mg/mL.

And the “Average conc. of salicylic acid” value ([3]; Acidified water, 6 hrs)?
The value was 0.168 mg/mL.

And the “Average conc. of salicylic acid” value ([3]; Acidified water, 12 hrs)?
The value was 0.217 mg/mL.

And the “Average conc. of salicylic acid” value ([3]; Acidified water, 24 hrs)?
The value was 0.269 mg/mL.

And the “Average conc. of salicylic acid” value ([3]; Acidified water, 48 hrs)?
The value was 0.327 mg/mL.

And the “Average conc. salicylic acid” value ([3]; Ethanol 96%, 0 hr)?
The value was 1.092 mg/mL.

And the “Average conc. salicylic acid” value ([3]; Ethanol 96%, 72 Hrs)?
The value was 24.768 mg/mL.

And the “Average conc. salicylic acid” value ([3]; Ethanol 96%, 6 hrs)?
The value was 1.961 mg/mL.

What about the “Average conc. salicylic acid” value ([3]; Ethanol 96%, 12 hrs) of the same molecule?
The value was 3.315 mg/mL.

And the “Average conc. salicylic acid” value ([3]; Ethanol 96%, 24 hrs)?
Its value is 18.682 mg/mL.

What about the “Average conc. salicylic acid” value ([3]; Ethanol 96%, 48 hrs) of the same molecule?
The value was 21.522 mg/mL.

And the “Average conc. salicylic acid” value ([3]; Tert-butyl alcohol, 0 hr)?
Its value is 0.543 mg/mL.

And the “Average conc. salicylic acid” value ([3]; Tert-butyl alcohol, 72 Hrs)?
The value was 18.135 mg/mL.

What about the “Average conc. salicylic acid” value ([3]; Tert-butyl alcohol, 6 hrs) of the same molecule?
Its value is 0.988 mg/mL.

What about the “Average conc. salicylic acid” value ([3]; Tert-butyl alcohol, 12 hrs) of the same molecule?
The value was 1.669 mg/mL.

And the “Average conc. salicylic acid” value ([3]; Tert-butyl alcohol, 24 hrs)?
The value was 9.261 mg/mL.

What about the “Average conc. salicylic acid” value ([3]; Tert-butyl alcohol, 48 hrs) of the same molecule?
Its value is 16.238 mg/mL.

And the “Average conc. salicylic acid” value ([3]; Water, 0 hr)?
The value was 0.269 mg/mL.

What about the “Average conc. salicylic acid” value ([3]; Water, 72 Hrs) of the same molecule?
Its value is 0.904 mg/mL.

And the “Average conc. salicylic acid” value ([3]; Water, 6 hrs)?
The value was 0.289 mg/mL.

What about the “Average conc. salicylic acid” value ([3]; Water, 12 hrs) of the same molecule?
The value was 0.312 mg/mL.

What about the “Average conc. salicylic acid” value ([3]; Water, 24 hrs) of the same molecule?
Its value is 0.574 mg/mL.

And the “Average conc. salicylic acid” value ([3]; Water, 48 hrs)?
Its value is 0.854 mg/mL.

And the “% of salicylic acid” value ([3]; acidified ethanol, up to 72 hours (Limit Not more than 5%))?
Its value is “less than 2%”.

What about the solubility ([4]; above pH 5.5) of the same molecule?
The solubility was “above 100 mg/ml”.

What about the solubility in water ([4]; water) of the same molecule?
The solubility in water was “about 0.3%”.
